# Results taken from ChEMBL document CHEMBL1177832, “One unique steroidal sapogenin obtained through the microbial transformation of ruscogenin by Phytophthora cactorum ATCC 32134 and its potential inhibitory effect on tissue factor (TF) procoagulant activity” (Bioorg Med Chem Lett, 2010).
# pIC50: −log10 of the molar value.
# Test system: THP-1
# Assay: Anticoagulant activity in human THP1 cells assessed as inhibition of TNF-alpha-stimulated tissue factor expression incubated 1 hr before TNFalpha challenge measured after 5 hrs
# Type: functional, cell-based
row,pIC50,Compound
1,5.16,C[C@@H]1CC[C@@]2(OC1)O[C@H]1C[C@H]3[C@@H]4CC=C5C[C@@H](O)CC[C@]5(C)[C@H]4CC[C@]3(C)[C@H]1[C@@H]2C [DISOGENIN]
2,5.92,COc1cc(/C=C/C(=O)CC(=O)/C=C/c2ccc(O)c(OC)c2)ccc1O [CURCUMIN]

# More lines, now with the values behind:
row,Compound,pIC50
1,C[C@H]1CC[C@@]2(OC1)O[C@H]1C[C@H]3[C@@H]4CC[C@@H]5C[C@@H](O)CC[C@]5(C)[C@H]4CC[C@]3(C)[C@H]1[C@@H]2C [SARSASAPOGENIN],5.48
2,C[C@@H]1CC[C@@]2(OC1)O[C@H]1C[C@H]3[C@@H]4CC=C5C[C@@H](O)C[C@@H](O)[C@]5(C)[C@H]4CC[C@]3(C)[C@H]1[C@@H]2C [RUSCOGENIN],5.64
3,C[C@@H]1CC[C@@]2(OC1)O[C@H]1C[C@H]3[C@@H]4CCC5=CC(=O)C[C@@H](O)[C@]5(C)[C@H]4CC[C@]3(C)[C@H]1[C@@H]2C,6.54
